According to ChEMBL document CHEMBL4257081, “Inhibitors of the kynurenine pathway” (2016):
Active and inactive are the calls of the source. The calls are words filed in the database; no cut-off is given here.

How the values were obtained:
Mus musculus [1] = test: Reduction in plasma kynurenine levels in Balb/C mouse implanted with mouse CT26 cells at 50 mg/kg, po bid for 4 days measured 2 hrs post last dose by LC/MS/MS analysis relative to control; assay type: functional; design: scale not given: the % may be the effect or the level left
Mus musculus [2] = test: Reduction in kynurenine levels in tumor of Balb/C mouse implanted with mouse CT26 cells at 50 mg/kg, po bid for 4 days measured 2 hrs post last dose by LC/MS/MS analysis relative to control; assay type: functional; design: scale not given: the % may be the effect or the level left
Mus musculus [3] = test: In vivo inhibition of IDO1 in po dosed LPS-induced C57BL/6 mouse assessed as reduction in plasma kynurenine levels measured after 2 to 48 hrs by LC/MS/MS analysis; assay type: functional
[4] = biological target: Tryptophan 2,3-dioxygenase (Homo sapiens, UniProt P48775); test: Inhibition of recombinant human TDO2 expressed in CHOK1 cells assessed as reduction in kynurenine formation using L-tryptophan as substrate measured after 2 hrs by LC/MS/MS analysis; assay type: cell-based
[5] = biological target: T1, Indoleamine 2,3-dioxygenase 1 (Homo sapiens, UniProt P14902); test: Inhibition of IDO1 in IFNgamma-stimulated human HeLa cells assessed as reduction in kynurenine formation using L-tryptophan as substrate measured after 15 mins by UV-vis HPLC analysis
[6] = Ratio of drug level in brain to plasma in Sprague-Dawley rat at 10 mg/kg, iv administered as single dose measured after 1 hr by LC/MS/MS analysis; assay type: ADME, organism-based; conditions: brain and plasma, read-out: BPR
CT26 [7] = test: Antitumor activity against mouse CT26 cells implanted in Balb/C mouse assessed as reduction in tumor growth at 40 mg/kg, po bid measured on day 1,4,6,9,11 and 14; assay type: functional, organism-based
Mus musculus [8] = test: Reduction in plasma kynurenine levels in Balb/C mouse implanted with mouse CT26 cells at 40 mg/kg, po bid measured after 14 days by LC/MS/MS analysis relative to control; assay type: functional; design: scale not given: the % may be the effect or the level left
[9] = Ratio of drug level in brain to plasma in Sprague-Dawley rat at 10 mg/kg, iv administered as single dose measured after 0.5 hrs by LC/MS/MS analysis; assay type: ADME, organism-based; conditions: brain and plasma, read-out: BPR
[10] = Ratio of drug level in brain to plasma in Sprague-Dawley rat at 10 mg/kg, iv administered as single dose measured after 3 hrs by LC/MS/MS analysis; assay type: ADME, organism-based; conditions: brain and plasma, read-out: BPR
[11] = biological target: T1, Indoleamine 2,3-dioxygenase 1; test: Inhibition of recombinant human N-terminal His-tagged IDO1 (1 to 403 residues) expressed in Escherichia coli assessed as reduction in kynurenine formation using tryptophan as substrate measured by LC/MS/MS analysis
Mus musculus [12] = test: Reduction in kynurenine levels in tumor of Balb/C mouse implanted with mouse CT26 cells at 20 mg/kg, po bid for 4 days measured 2 hrs post last dose by LC/MS/MS analysis relative to control; assay type: functional; design: scale not given: the % may be the effect or the level left
Mus musculus [13] = test: Reduction in plasma kynurenine levels in Balb/C mouse implanted with mouse CT26 cells at 20 mg/kg, po bid for 4 days measured 2 hrs post last dose by LC/MS/MS analysis relative to control; assay type: functional; design: scale not given: the % may be the effect or the level left
CT26 [14] = test: Antitumor activity against mouse CT26 cells implanted in Balb/C mouse assessed as reduction in tumor growth at 60 mg/kg, po bid measured on day 1,4,6,9,11 and 14 relative to control; assay type: functional; design: scale not given: the % may be the effect or the level left
Mus musculus [15] = test: Reduction in plasma kynurenine levels in Balb/C mouse implanted with mouse CT26 cells at 60 mg/kg, po bid measured after 14 days by LC/MS/MS analysis relative to control; assay type: functional; design: scale not given: the % may be the effect or the level left
CT26 [16] = test: Antitumor activity against mouse CT26 cells implanted in Balb/C mouse assessed as reduction in tumor growth at 50 mg/kg, po bid measured on day 1,4,6,9,11 and 14 relative to control; assay type: functional; design: scale not given: the % may be the effect or the level left
CT26 [17] = test: (§1) Synergistic antitumor activity against mouse CT26 cells implanted in Balb/c mouse assessed as reduction in tumor volume at 50 mg/kg, po bid for 35 days starting from day 5 post doxorubucin administration followed by second doxorubicin dosing at 3 weeks post doxorubucin dose measured 4 hrs post last dose; assay type: functional, organism-based
Mus musculus [18] = test: Reduction in plasma kynurenine levels in Balb/C mouse implanted with mouse CT26 cells at 50 mg/kg, po bid measured after 14 days by LC/MS/MS analysis relative to control; assay type: functional; design: scale not given: the % may be the effect or the level left
CT26 [19] = test: Synergistic antitumor activity against mouse CT26 cells implanted in Balb/c mouse assessed as reduction in time of tumor progression at 50 mg/kg, po bid for 35 days starting from day 5 post doxorubucin administration followed by second doxorubicin dosing at 3 weeks post doxorubucin dose; assay type: functional, organism-based
Mus musculus [20] = test: Reduction in plasma kynurenine levels in Balb/C mouse implanted with mouse CT26 cells at 75 mg/kg, po bid measured after 14 days by LC/MS/MS analysis relative to control; assay type: functional; design: scale not given: the % may be the effect or the level left
CT26 [21] = test: Antitumor activity against mouse CT26 cells implanted in Balb/C mouse assessed as reduction in tumor growth at 75 mg/kg, po bid measured on day 1,4,6,9,11 and 14 relative to control; assay type: functional; design: scale not given: the % may be the effect or the level left
CT26 [22] = test: as §1, with “volume at 75 mg/kg, po” for “volume at 50 mg/kg, po”, “weeks post doxorubicin dose measured” for “weeks post doxorubucin dose measured”; assay type: functional, organism-based
CT26 [23] = test: Synergistic antitumor activity against mouse CT26 cells implanted in Balb/c mouse assessed as reduction in time of tumor progression at 75 mg/kg, po bid for 35 days starting from day 5 post doxorubucin administration followed by second doxorubicin dosing at 3 weeks post doxorubicin dose; assay type: functional, organism-based

Chain of Tryptophan 2,3-dioxygenase (P48775 whole entry): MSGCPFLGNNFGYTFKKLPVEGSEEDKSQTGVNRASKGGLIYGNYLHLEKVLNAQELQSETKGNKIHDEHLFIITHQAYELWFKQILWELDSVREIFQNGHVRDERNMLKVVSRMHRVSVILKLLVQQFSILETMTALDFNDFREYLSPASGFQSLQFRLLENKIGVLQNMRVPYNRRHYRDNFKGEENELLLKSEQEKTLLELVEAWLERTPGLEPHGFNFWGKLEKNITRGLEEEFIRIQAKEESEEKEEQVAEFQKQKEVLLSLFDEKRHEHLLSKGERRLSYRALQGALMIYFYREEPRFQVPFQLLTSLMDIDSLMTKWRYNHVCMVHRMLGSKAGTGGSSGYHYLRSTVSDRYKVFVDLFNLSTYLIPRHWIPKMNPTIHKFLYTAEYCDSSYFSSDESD
T1 sequence (P14902 whole entry): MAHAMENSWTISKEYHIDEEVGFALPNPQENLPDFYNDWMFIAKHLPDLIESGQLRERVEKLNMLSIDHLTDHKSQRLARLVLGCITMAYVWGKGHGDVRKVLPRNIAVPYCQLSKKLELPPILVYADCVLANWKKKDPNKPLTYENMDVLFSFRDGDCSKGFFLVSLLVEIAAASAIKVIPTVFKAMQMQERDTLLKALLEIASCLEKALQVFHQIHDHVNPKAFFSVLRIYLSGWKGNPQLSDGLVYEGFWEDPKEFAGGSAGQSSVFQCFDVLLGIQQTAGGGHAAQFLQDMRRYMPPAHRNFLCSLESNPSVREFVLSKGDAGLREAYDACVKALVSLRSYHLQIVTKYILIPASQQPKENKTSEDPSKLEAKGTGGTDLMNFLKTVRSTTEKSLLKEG

SMILES	Activity (Mus musculus [1])	Activity (Mus musculus [2])	inhibition (INH) (Mus musculus [3])	further results
Cc1cc(-c2nccc3c(Nc4ccc(F)c(F)c4)c(N)oc23)ccn1	>50%	>50%	>50%	–
Nc1oc2cnc(F)cc2c1Nc1ccc(F)c(C(F)(F)F)c1	–	–	–	IC50 [4]: < 500 nM; IC50 [5]: < 200 nM
Nc1oc2cnccc2c1Nc1ccc(F)c(Cl)c1	–	–	>50%	Kp at 1 h [6]: 10.7; Activity (CT26 [7]): Active; Activity (Mus musculus [8]): 40 - 50%; Kp at 0.5 h [9]: 9.8; Kp at 3 h [10]: 6
Nc1oc2c(-c3ccncc3)nccc2c1Nc1ccc(F)c(C(F)(F)F)c1	–	–	>50%	–
COCCNC(=O)c1ccc(-c2nccc3c(Nc4ccc(F)c(Cl)c4)c(N)oc23)cc1	–	–	>50%	–
Cc1cc(-c2nccc3c(Nc4cccc(C(F)(F)F)c4)c(N)oc23)ccn1	–	–	>50%	–
Nc1sc2ccccc2c1Nc1ccc(F)c(Cl)c1	–	–	>=25 - 50%	–
Nc1oc2c(-c3ccncc3)nc(F)cc2c1Nc1ccc(F)c(Cl)c1	<25%	>=25 - 50%	>50%	–
CCOC(=O)Nc1oc2cnccc2c1N(C(=O)OCC)c1ccc(F)c(Cl)c1	>50%	>50%	>50%	–
Nc1oc2cnccc2c1Nc1ccc(F)c(F)c1	–	–	>50%	IC50 [4]: 500 to 2000 nM; IC50 [11]: 200 to 1000 nM
Cc1cc(-c2nccc3c(Nc4ccc(F)cc4)c(N)oc23)ccn1	–	–	>50%	–
Nc1oc2cnccc2c1Nc1cccc(C(F)(F)F)c1	–	–	>50%	Activity (Mus musculus [12]): >=25 - 50%; Activity (Mus musculus [13]): >50%
COc1ccccc1-c1nccc2c(Nc3ccc(F)c(Cl)c3)c(N)oc12	<25%	<25%	–	–
Nc1oc2c(-c3ccccc3Cl)nccc2c1Nc1ccc(F)c(Cl)c1	–	–	>=25 - 50%	IC50 [4]: < 500 nM; IC50 [5]: < 200 nM
CNC(=O)c1cc(-c2nccc3c(Nc4ccc(F)c(Cl)c4)c(N)oc23)ccn1	>50%	>50%	–	–
Nc1oc2c(Cl)nccc2c1Nc1ccc(F)c(Cl)c1	>=25 - 50%	>=25 - 50%	>50%	Activity (CT26 [14]): 26 - 38%; Activity (Mus musculus [15]): 40 - 50%
Nc1oc2c(-c3ccnc(N4CCOCC4)c3)nccc2c1Nc1ccc(F)c(Cl)c1	>50%	>=25 - 50%	>50%	–
Nc1oc2c(-c3ccncc3)nccc2c1Nc1ccc(F)c(F)c1	>50%	>50%	>50%	Activity (CT26 [16]): 26 - 38%; Activity (CT26 [17]): Active; Activity (Mus musculus [18]): 40 - 50%; Activity (CT26 [19]): Active
Nc1sc2ccccc2c1Nc1ccccc1	–	–	–	IC50 [4]: < 500 nM; IC50 [11]: 200 to 1000 nM
Nc1oc2c(-c3ccc(F)c(F)c3F)nccc2c1Nc1ccc(F)c(Cl)c1	–	–	>50%	–
Nc1sc2c(-c3ccncc3)cccc2c1Nc1ccc(F)c(Cl)c1	–	–	>=25 - 50%	–
Nc1oc2c(-c3ccc(F)c(F)c3)nccc2c1Nc1ccc(F)c(Cl)c1	–	–	>=25 - 50%	–

SMILES	Activity (Mus musculus [1])	Activity (Mus musculus [2])	inhibition (INH) (Mus musculus [3])	further results
Nc1oc2c(-c3ccncc3)nccc2c1Nc1ccc(F)c(Cl)c1	–	–	>50%	Activity (Mus musculus [20]): 40 - 50%; Kp at 1 h [6]: 0.47; Activity (CT26 [21]): 26 - 38%; Kp at 0.5 h [9]: 0.67; Activity (CT26 [22]): Active; Kp at 3 h [10]: 0.64; Activity (CT26 [23]): Active
CCOC(=O)Nc1oc2cnccc2c1Nc1ccc(F)c(Cl)c1	–	–	–	IC50 [4]: > 2000 nM; IC50 [11]: > 1000 nM
Nc1oc2c(-c3cccc4ccccc34)nccc2c1Nc1ccc(F)c(Cl)c1	>50%	>50%	>=25 - 50%	–
Nc1oc2cnc(Cl)cc2c1Nc1ccc(F)c(Cl)c1	–	–	>50%	–
COc1ccc(-c2nccc3c(Nc4ccc(F)c(Cl)c4)c(N)oc23)cc1	–	–	>50%	–
O=C(Nc1oc2cnccc2c1N(C(=O)OCc1ccccc1)c1ccc(F)c(Cl)c1)OCc1ccccc1	–	–	>50%	–
Nc1sc2ccccc2c1Nc1cccc(Cl)c1	–	–	>=25 - 50%	–
Nc1oc2cnccc2c1Nc1ccc(F)c(Br)c1	–	–	>50%	–
N#Cc1nccc2c(Nc3ccc(F)c(Cl)c3)c(N)oc12	>=25 - 50%	<25%	>50%	–
Nc1oc2c(-c3ccncc3)nc(F)cc2c1Nc1ccc(F)c(F)c1	>=25 - 50%	>50%	>50%	–
C#Cc1cccc(Nc2c(N)oc3c(CC)nccc23)c1	–	–	>50%	–
Nc1oc2c(-c3ccc(F)cc3)nccc2c1Nc1ccc(F)c(Cl)c1	–	–	>50%	–
Cc1cc(-c2nccc3c(Nc4ccc(F)c(Cl)c4)c(N)oc23)cc(C)n1	>=25 - 50%	>=25 - 50%	>50%	–
Cc1cc(-c2nccc3c(Nc4ccc(F)c(Cl)c4)c(N)oc23)ccn1	>50%	>50%	>50%	–
Nc1oc2cnc(F)cc2c1Nc1ccc(F)c(Cl)c1	>=25 - 50%	<25%	>50%	–
CCOC(=O)Nc1oc2c(C#N)nccc2c1N(C(=O)OCC)c1ccc(F)c(Cl)c1	>=25 - 50%	<25%	–	–
C#Cc1cccc(Nc2c(N)oc3c(-c4ccccc4)nccc23)c1	–	–	>50%	–
Nc1oc2c(-c3ccccc3)nc(Oc3ccccc3)cc2c1Nc1ccc(F)c(Cl)c1	–	–	–	IC50 [4]: > 2000 nM; IC50 [11]: > 1000 nM
Nc1sc2cnccc2c1Nc1ccc(F)c(Cl)c1	–	–	<25%	–
N#Cc1nccc2c(Nc3ccc(F)c(C(F)(F)F)c3)c(N)oc12	>=25 - 50%	<25%	>50%	–
N#Cc1ccc(-c2nccc3c(Nc4ccc(F)c(Cl)c4)c(N)oc23)cc1	–	–	>50%	–
Nc1oc2c(F)nc(F)cc2c1Nc1ccc(F)c(Cl)c1	>=25 - 50%	>50%	>=25 - 50%	–
